Assay results published in patent US20190209548A1, “LINKED DIARYL COMPOUNDS WITH ANTICANCER PROPERTIES AND METHODS OF USING THE SAME” (University of Maryland, College Park, priority 2014, published 2019).
Read-outs that look alike come from different tables or passages of the source.

Key:
[1] = system: G-quadruplex DNAs (c-kit1, VEGF, bcl-2 2345 and TBA); test: UV-visible titration with G-quadruplex DNA; format: binding; conditions: UV-visible titration conditions
Protocol: UV titration studies of DNA with the triazene ligands, DMZ and Triazene-1. The molar extinction coefficients at 260 nm for 22-mer c-kit1, 18-mer VEGF, 23-mer bcl-2 2345, 15-mer TBA and 20-mer 8 bp AT are as follows 226,700 M^−1 cm^−1, 169,800 M^−1 cm^−1, 227,300 M^−1 cm^−1, 143,300 M^−1 cm^1 and 205,500 M^−1 cm^−1, respectively. The concentration of ligands used in this study was 10 μM and the DNA concentrations were 0, 0.25, 1.5, 3, 5, 6, 7, 8, 9, 10, 20, 30, 40, 50, 100, and 15 μM. The buffer contained 250 mM KCl, 50 mM Tris-HCl (at pH 7.5). The following quadruplex DNA were tested: c-kit1, VEGF, bcl-2 2345, and TBA. Duplex DNA (8 bp AT) was also tested. The sample was first heated up to 95° C. for 5 min without the ligand and then cooled down to room temperature in 15 min. The ligand was then added and the mixture was incubated at 4° C. for ˜12 h before recording the data. In case of Triazene-1 and Triazene-2, the sample mixture contained 1% DMSO.

OVCAR-3 = test: WST-1 IC50 determination, OVCAR-3; format: cell-based, human
Protocol: (§1) Cell lines and culturing. The following human cell lines were purchased from ATCC (ATCC, Manassas, Va.): prostate cancer cells (PC-3), triple negative breast cancer cells (MDA-MB-231), ovarian cancer cells (OVCAR-3), normal bone marrow (NBM) and normal fibroblast cells (MCR5A). MDA-MB-231 cells were grown at 37° C. with 5% CO2 atmosphere with DMEM (Life technologies, Carlsbad, Calif.) supplemented with heat-inactivated 10% (V/V) fetal bovine serum. OVCAR-3 and PC-3 cells were grown at 37° C. with 5% CO2 atmosphere with RPMI (Life technologies, Carlsbad, Calif.) supplemented with heat-inactivated 10% (V/V) fetal bovine serum. Cell lines were grown and maintained according to ATCC recommendations.
(§2) IC50 determination. Cell lines were seeded into 96-well plates the afternoon prior to treatment. Cell seeding number was determined by growing cells in log phase growth during drug treatment. Approximately 18 hours later, compounds were semi-serially diluted in dimethyl sulfoxide (DMSO) and then growth medium, and added to cells. Plates were incubated for 72 hours prior to addition of WST-1 (Promega, Madison Wis.). Plates were read after 4 additional hours of incubation at 37° C. using a Bio-Tek Synergy HT plate reader (Bio-Tek, Winooski, Vt.). Data was analyzed, graphed and IC50s generated using GraphPad Prism Software (Graphpad, La Jolla, Calif.).
(§3) IC50 determination: For the determination of IC50 for the azolamide class, the same protocol as described previously was followed.

PC-3 = test: WST-1 IC50 determination, PC-3; format: cell-based, human
Protocol: as §1, §2, §3

MDA-MB-231 = test: WST-1 IC50 determination, MDA-MB-231; format: cell-based, human
Protocol: as §1, §2, §3

NBM = test: WST-1 IC50 determination, normal bone marrow; format: cell-based, human
Protocol: as §1, §2, §3

MCR5A = test: WST-1 IC50 determination, normal fibroblast; format: cell-based, human; conditions: normal fibroblast cell, 72 hours, read-out: IC50 ± SD, MCR5A
Protocol: as §1, §2

c-MYC Pu27 = test: PCR stop assay, Pu27 template; format: biochemical; conditions: 10 μM compound
Protocol: (§4) PCR Stop Assay. This assay was performed by modifying a previously published protocol.
(§5) To the PCR reaction mixture (25 μL), 1×PCR buffer (New England Biolabs), 5 μM Pu27 and Pu27rev oligomers, various concentrations of ligands (DMZ, TMPyP4, DMZ1, DMZ9 and DMZ13) were added and incubated at 4° C. for 6 h. After that, 1 mM dNTPs, 5 units of Taq DNA polymerase (New England Biolabs) were added and PCR reactions were performed in a thermocycler, with the following conditions: 94° C. for 3 min, followed by 20 repeated cycles each having 94° C. for 30 s, 58° C. for 30 s, and 72° C. for 30 s. After PCR, amplified products were analyzed on 12% polyacrylamide gel with 1×TBE and SYBR Gold stained. This assay was also performed under the same conditions with Pu27-13,14 and Pu27rev.

Pu27-13,14 = test: PCR stop assay, mutated control template; format: biochemical; conditions: 10 μM compound
Protocol: as §4, §5

G-quadruplexes = conditions: binding of classic G-tetrad-motif ligand to G-quadruplexes; cited from earlier work
F21T = test: FRET melting assay, F21T; format: binding; conditions: 0.2 μM dual-labeled DNA and 0.2 μM TMPyP4
c-MYC = test: FRET melting assay, c-MYC; format: binding; conditions: 0.2 μM dual-labeled DNA and 0.2 μM TMPyP4
c-kit2 = test: FRET melting assay, c-kit2; format: binding; conditions: 0.2 μM dual-labeled DNA and 0.2 μM TMPyP4
k-RAS21R = test: FRET melting assay, k-RAS21R; format: binding; conditions: 0.2 μM dual-labeled DNA and 0.2 μM TMPyP4
duplex = test: FRET melting assay, duplex DNA; format: binding; conditions: 0.2 μM dual-labeled DNA and 0.2 μM TMPyP4
MOLM14 = test: WST-1 IC50 determination, MOLM14; format: cell-based; conditions: Homo sapiens
Protocol: as §2, §3

THP1 = test: WST-1 IC50 determination, THP1; format: cell-based; conditions: Homo sapiens, THP-1; THP1, 72 h; read-out: IC50 for killing Leukemia cell line
Protocol: as §2, §3

U87 = test: IC50 determination, U87; format: cell-based; conditions: Homo sapiens, U-87 MG; Glioblastoma; read-out: Anticancer activities, U87
Protocol: as §2, §3

MV4-11 = test: IC50 determination, MV4-11; format: cell-based; conditions: Homo sapiens, Acute monocyctic leukemia, read-out: Anticancer activities, MV4-11
Protocol: as §2, §3

Tolerability studies = format: in vivo; conditions: mice, 10 mg/Kg
[2] = Human liver microsome stability; format: in vitro ADME; conditions: human, liver microsomes
Excerpt: An established method to determine the pharmacokinetic clearance of a compound in humans is to measure the degradation of the compound in the presence of human liver microsomes. The following is the half-lives of the four compounds in human liver microsomes: […]

SH-SY5Y = conditions: read-out: IC50 of cisplatin; cited from earlier work
PNT1 = conditions: read-out: IC50 of cisplatin; cited from earlier work
SW872 = conditions: read-out: IC50 of cisplatin; cited from earlier work
RD = conditions: read-out: IC50 of cisplatin; cited from earlier work
A375 = conditions: read-out: IC50 of cisplatin; cited from earlier work
Hep2 = conditions: read-out: IC50 of cisplatin; cited from earlier work
MCF-7/DX = conditions: read-out: IC50 of cisplatin; cited from earlier work
HT1080 = conditions: read-out: IC50 of cisplatin; cited from earlier work
HOS = conditions: read-out: IC50 of cisplatin; cited from earlier work
SAOS-2 = conditions: read-out: IC50 of cisplatin; cited from earlier work
PC3 = conditions: read-out: IC50 of cisplatin; cited from earlier work
PANC-1 = conditions: read-out: IC50 of cisplatin; cited from earlier work
A431 = conditions: read-out: IC50 of cisplatin; cited from earlier work
U2-OS = conditions: read-out: IC50 of cisplatin; cited from earlier work
HT29 = conditions: read-out: IC50 of cisplatin; cited from earlier work
CFPAC-1 = conditions: read-out: IC50 of cisplatin; cited from earlier work
Calu-3 = conditions: read-out: IC50 of cisplatin; cited from earlier work
CAPAN-1 = conditions: read-out: IC50 of cisplatin; cited from earlier work
[3] = system: triple-negative breast cancer cells; test: Cancer cell migration; format: cell-based; conditions: increasing concentration
Excerpt: FIG. 36. […] Red=negative control—no FCS in bottom well. Green=DMSO. Blue and pink=increasing concentration of 630-1.

[4] = 72 hours, WST-1, read-out: Anticancer activity IC50 ± SD, OVCAR-3
[5] = 72 hours, WST-1, read-out: Anticancer activity IC50 ± SD, PC-3
[6] = 72 hours, WST-1, read-out: Anticancer activity IC50 ± SD, MDA-MB-231
[7] = Homo sapiens, PC-3, prostate cancer, read-out: Anticancer activities, PC3
[8] = Homo sapiens, MDA-MB-231, triple negative breast cancer, read-out: Anticancer activities, TNBC 231
[9] = Homo sapiens, Bone marrow cell, Normal bone marrow cells, read-out: Anticancer activities, NBM

c1ccc(N=NNc2ccccc2)cc1 [Triazene-2]
self-aggregation [1]: exhibited self-aggregation

C[n+]1ccc(-c2c3nc(c(-c4cc[n+](C)cc4)c4ccc([nH]4)c(-c4cc[n+](C)cc4)c4ccc([nH]4)c(-c4cc[n+](C)cc4)c4nc2C=C4)C=C3)cc1 [TMPyP4, reference compound]
IC50 (OVCAR-3; [4]): 14.6 ± 5.7 µM | IC50 (PC-3; [5]): 14 ± 5.4 µM | IC50 (MDA-MB-231; [6]): 14.3 ± 4 µM | IC50 (NBM; normal bone marrow, 72 hours, WST-1, read-out: IC50 ± SD, NBM): 16.8 µM | IC50 (MCR5A): 15.2 ± 6.6 µM | polymerization/extension of oligomers Pu27 and Pu27rev (c-MYC Pu27): showed inhibition | PCR product with non-G-quadruplex template (Pu27-13,14): no PCR product was observed | Ka (G-quadruplexes): ≈ 5×10^6 M^−1 | ΔTm F21T (F21T): 4.01 ± 0.26 °C | ΔTm c-MYC (c-MYC): 23.75 ± 0.52 °C | ΔTm c-kit2 (c-kit2): 3.46 ± 1.03 °C | ΔTm k-RAS21R (k-RAS21R): 34.71 ± 0.93 °C | ΔTm duplex (duplex): 1.14 ± 0.52 °C

N=C(N)c1ccc(/N=N/c2c(N)ncc3ccccc23)cc1 [HSW308-4]
IC50 (OVCAR-3; Homo sapiens, OVCAR-3, read-out: IC50 for killing ovarian cancer cell line (OVCAR-3)): 4.2 µM | IC50 (PC-3; [7]): 1.3 µM | IC50 (PC-3; Homo sapiens, PC-3, read-out: IC50 for killing prostate cancer cell line (PC-3)): 1 µM | IC50 (MDA-MB-231; Homo sapiens, MDA-MB-231, read-out: IC50 for killing triple negative breast cancer cell line (231)): 1.9 µM | IC50 (MDA-MB-231; [8]): 1.85 µM | IC50 (NBM; [9]): 8.7 µM | IC50 (MOLM14; MOLM-14, MOLM14, 72 h, read-out: IC50 for killing Leukemia cell line): 0.98 µM | IC50 (MOLM14; MOLM-14, leukemia, read-out: Anticancer activities, Molm14): 0.98 µM | IC50 (THP1): 2.6 µM | IC50 (U87): 1.32 µM | IC50 (MV4-11): 0.92 µM | tolerability (Tolerability studies): can be tolerated | half-life ([2]; read-out: NADPH-dependent T½): 3.27 h | half-life ([2]; read-out: NADPH-independent T½): > 4 h

N.N.[Cl][Pt][Cl] [Cisplatin]
IC50 (OVCAR-3; [4]): 4.1 ± 1.8 µM | IC50 (PC-3; [5]): 10.5 ± 1.3 µM | IC50 (PC-3; prostate cancer, read-out: Anticancer activities, PC3): 10.5 µM | IC50 (MDA-MB-231; [6]): 11.7 ± 1 µM | IC50 (MDA-MB-231; triple negative breast cancer, read-out: Anticancer activities, TNBC 231): 11.7 µM | IC50 (SH-SY5Y): 2 µM | IC50 (PNT1): 5 µM | IC50 (SW872): 5 µM | IC50 (RD): 6 µM | IC50 (A375): 6 µM | IC50 (Hep2): 7 µM | IC50 (MCF-7/DX): 7 µM | IC50 (HT1080): 9 µM | IC50 (HOS): 10 µM | IC50 (SAOS-2): 11 µM | IC50 (PC3): 12 µM | IC50 (PANC-1): 15 µM | IC50 (A431): 20 µM | IC50 (U2-OS): 20 µM | IC50 (HT29): 22 µM | IC50 (CFPAC-1): 38 µM | IC50 (Calu-3): > 50 µM | IC50 (CAPAN-1): > 50 µM

N=C(N)c1ccc(/N=N/c2c(N)ncc3ccc(Br)cc23)cc1 [HSW630-1]
IC50 (PC-3; [7]): 0.59 µM | IC50 (MDA-MB-231; [8]): 0.48 to 0.92 µM | IC50 (NBM; [9]): 5.1 µM | IC50 (MOLM14; MOLM-14, read-out: Anticancer activities, Molm14): 0.14 µM | IC50 (U87): 0.56 µM | IC50 (MV4-11): 0.15 µM | migration of cancer cells [3]: prevents cancer cells from migrating | migration of cancer cells ([3]; listed as 630-1): can inhibit migration | tolerability (Tolerability studies): can be tolerated | half-life ([2]; read-out: NADPH-dependent T½): 3.18 h | half-life ([2]; read-out: NADPH-independent T½): 2.07 h
